Results reported in patent publication US10287293B2, “Bicyclic heterocyclic compounds as PDE2 inhibitors” (Merck Sharp & Dohme Corp., priority 2015, dated 2019).
pKi: −log10 of the molar value.

Legend:
human PDE2A1 = human PDE2A1 (Homo sapiens (Human), UniProt O00408); test: PDE selectivity panel IMAP FP assay, human PDE2; format: biochemical; conditions: FAM cAMP 50 nM containing 1000 nM cGMP
Protocol: Selectivity for PDE2, as compared to other PDE families, was assessed using the IMAP® technology. Human PDE10A2 enzyme was prepared from cytosolic fractions of transiently transfected HEK cells. […] The enzyme and the substrate were then added to the assay plates in two consecutive additions of 10 μL and then shaken to mix. The reaction was allowed to proceed at room temperature for 60 minutes. […] The enzymatic reaction was stopped by addition of 60 μL of the binding solution to each well of the assay plate. The plates were sealed and shaken for 10 seconds. The plates were incubated at room temperature for one hour, then the parallel and perpendicular fluorescence was measured using a Tecan Genios Pro plate reader (Tecan, Switzerland). […] The intrinsic PDE2 inhibitory activity of a compound which may be used in accordance with the present invention may be determined by these assays. […] Additional data is provided in the following Examples.

Rhesus PDE2A3 = Rhesus PDE2A3 (Macaca mulatta, UniProt B3VTJ2); test: PDE2 fluorescence polarization (IMAP FP) inhibition assay, rhesus enzyme; format: biochemical, rhesus macaque; conditions: FAM-cAMP 50 nM substrate, cGMP 1 uM activator
[1] = literature report; cited from earlier work
other PDE isoforms = conditions: literature report; cited from earlier work

Sequence of human PDE2A1 (O00408 other isoform, or with tags, fused parts or gaps): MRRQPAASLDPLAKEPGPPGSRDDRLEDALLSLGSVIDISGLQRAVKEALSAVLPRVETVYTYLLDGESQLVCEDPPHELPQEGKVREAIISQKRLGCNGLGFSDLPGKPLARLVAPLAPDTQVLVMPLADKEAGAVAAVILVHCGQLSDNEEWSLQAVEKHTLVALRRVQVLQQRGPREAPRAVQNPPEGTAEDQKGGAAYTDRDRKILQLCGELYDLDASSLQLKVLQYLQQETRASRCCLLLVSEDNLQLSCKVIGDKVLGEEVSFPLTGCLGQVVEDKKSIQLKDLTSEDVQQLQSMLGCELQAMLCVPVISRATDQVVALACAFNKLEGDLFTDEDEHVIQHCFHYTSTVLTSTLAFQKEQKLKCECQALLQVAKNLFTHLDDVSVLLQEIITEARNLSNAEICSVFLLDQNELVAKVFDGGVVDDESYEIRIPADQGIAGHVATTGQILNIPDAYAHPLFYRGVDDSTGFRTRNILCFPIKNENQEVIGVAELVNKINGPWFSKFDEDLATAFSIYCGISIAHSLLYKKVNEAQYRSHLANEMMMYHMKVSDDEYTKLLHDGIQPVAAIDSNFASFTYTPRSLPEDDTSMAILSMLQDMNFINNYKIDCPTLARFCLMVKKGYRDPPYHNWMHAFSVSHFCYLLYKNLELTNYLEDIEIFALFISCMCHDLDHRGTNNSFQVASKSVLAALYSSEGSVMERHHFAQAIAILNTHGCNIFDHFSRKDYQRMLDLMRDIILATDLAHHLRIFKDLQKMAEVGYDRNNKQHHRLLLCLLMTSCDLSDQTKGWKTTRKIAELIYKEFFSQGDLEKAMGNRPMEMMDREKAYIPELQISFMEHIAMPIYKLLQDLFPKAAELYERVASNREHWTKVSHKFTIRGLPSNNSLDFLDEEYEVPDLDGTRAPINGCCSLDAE
Sequence of Rhesus PDE2A3 (B3VTJ2 1-941): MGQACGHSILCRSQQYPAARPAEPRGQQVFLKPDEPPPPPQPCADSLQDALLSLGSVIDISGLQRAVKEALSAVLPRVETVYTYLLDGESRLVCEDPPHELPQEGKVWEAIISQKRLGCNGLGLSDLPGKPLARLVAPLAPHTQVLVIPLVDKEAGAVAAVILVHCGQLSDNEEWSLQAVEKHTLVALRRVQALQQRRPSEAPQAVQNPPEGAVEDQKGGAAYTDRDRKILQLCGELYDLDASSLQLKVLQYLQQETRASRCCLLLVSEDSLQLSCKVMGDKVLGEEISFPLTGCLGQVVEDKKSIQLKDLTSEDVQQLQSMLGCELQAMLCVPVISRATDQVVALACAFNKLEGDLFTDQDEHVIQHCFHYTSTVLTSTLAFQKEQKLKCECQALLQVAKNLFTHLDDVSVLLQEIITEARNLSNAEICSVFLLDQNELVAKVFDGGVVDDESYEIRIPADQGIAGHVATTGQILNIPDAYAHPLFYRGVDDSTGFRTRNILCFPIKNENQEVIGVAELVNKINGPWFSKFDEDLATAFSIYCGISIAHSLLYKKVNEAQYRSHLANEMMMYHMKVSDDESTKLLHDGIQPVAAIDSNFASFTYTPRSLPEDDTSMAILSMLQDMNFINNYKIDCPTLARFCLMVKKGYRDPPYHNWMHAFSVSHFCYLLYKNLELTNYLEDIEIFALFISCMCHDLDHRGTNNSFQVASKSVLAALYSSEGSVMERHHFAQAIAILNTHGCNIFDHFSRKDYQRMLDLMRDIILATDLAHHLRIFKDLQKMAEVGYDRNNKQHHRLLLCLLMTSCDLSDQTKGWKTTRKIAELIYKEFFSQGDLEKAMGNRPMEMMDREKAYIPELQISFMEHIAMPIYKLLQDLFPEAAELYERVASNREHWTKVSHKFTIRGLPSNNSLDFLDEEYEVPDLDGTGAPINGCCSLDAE

Row | Structure (SMILES) | pKi (human PDE2A1) | further results
1 | Cc1nc2c(C(C)c3cccc(C(F)(F)F)c3F)nn(CCO)c2c(=O)[nH]1 (single isomer, unassigned) [Example 9, (R)- or (S)-3-(1-(2-Fluoro-3-(trifluoromethyl)phenyl)ethyl)-1-(2-hydroxyethyl)-5-methyl-1,6-dihydro-7H-pyrazolo[4,3-d]pyrimidin-7-one] | 5.55 | –
2 | Cc1nc2c(C(C)c3cccc(C(F)(F)F)c3F)nn(CCO)c2c(=O)[nH]1 (single isomer, unassigned) [Example 10, (S)- or (R)-3-(1-(2-Fluoro-3-(trifluoromethyl)phenyl)ethyl)-1-(2-hydroxyethyl)-5-methyl-1,6-dihydro-7H-pyrazolo[4,3-d]pyrimidin-7-one] | 6.69 | –
3 | Cc1nc2c([C@@H](C)c3ccc(C(F)(F)F)cc3)nn([C@H](C)CO)c2c(=O)[nH]1 (single isomer, unassigned) [Example 21, 1-((R)-1-Hydroxypropan-2-yl)-5-methyl-3-((S)-1-(4-(trifluoromethyl)phenyl)ethyl)-1,6-dihydro-7H-pyrazolo[4,3-d]pyrimidin-7-one or 1-((R)-1-Hydroxypropan-2-yl)-5-methyl-3-((R)-1-(4-(trifluoromethyl)phenyl)ethyl)-1,6-dihydro-7H-pyrazolo[4,3-d]pyrimidin-7-one] | 6.62 | –
4 | Cc1nc2c([C@@H](C)c3ccc(C(F)(F)F)cc3)nn([C@H](C)CO)c2c(=O)[nH]1 (single isomer, unassigned) [Example 22, 1-((R)-1-Hydroxypropan-2-yl)-5-methyl-3-((S)-1-(4-(trifluoromethyl)phenyl)ethyl)-1,6-dihydro-7H-pyrazolo[4,3-d]pyrimidin-7-one or 1-((R)-1-Hydroxypropan-2-yl)-5-methyl-3-((R)-1-(4-(trifluoromethyl)phenyl)ethyl)-1,6-dihydro-7H-pyrazolo[4,3-d]pyrimidin-7-one] | 7.81 | –
5 | Cc1nc2c([C@@H](C)c3ccc(C(F)(F)F)cc3)nn([C@@H](C)CO)c2c(=O)[nH]1 (single isomer, unassigned) [Example 23, 1-((S)-1-Hydroxypropan-2-yl)-5-methyl-3-((S)-1-(4-(trifluoromethyl)phenyl)ethyl)-1,6-dihydro-7H-pyrazolo[4,3-d]pyrimidin-7-one or 1-((S)-1-Hydroxypropan-2-yl)-5-methyl-3-((R)-1-(4-(trifluoromethyl)phenyl)ethyl)-1,6-dihydro-7H-pyrazolo[4,3-d]pyrimidin-7-one] | 6.85 | –
6 | Cc1nn2c([C@@H](C)c3ccc(C(F)(F)F)cc3)nc(C)c2c(=O)[nH]1 (single isomer, unassigned) [Example 26] | – | pKi (Rhesus PDE2A3): 6.11
7 | Cc1nn2c([C@@H](C)c3ccc(C(F)(F)F)cc3)nc(C)c2c(=O)[nH]1 (single isomer, unassigned) [Example 27] | 7.76 | pKi (Rhesus PDE2A3): 7.68
8 | Cc1nn2c([C@@H](C)c3ccc(C(F)(F)F)cc3)nc(CO)c2c(=O)[nH]1 (single isomer, unassigned) [Example 28] | 6.53 | –
9 | Cc1nn2c([C@@H](C)c3ccc(C(F)(F)F)cc3)nc(CO)c2c(=O)[nH]1 (single isomer, unassigned) [Example 29] | 8.92 | –
10 | Cc1nn2c(C(C)c3ccc(C(F)(F)F)cc3F)nc(CO)c2c(=O)[nH]1 (single isomer, unassigned) [Example 30, (R)- or (S)-7-(1-(2-fluoro-4-(trifluoromethyl)phenyl)ethyl)-5-(hydroxymethyl)-2-methylimidazo[5,1-f][1,2,4]triazin-4(3H)-one] | 6.70 | –
11 | Cc1nn2c(C(C)c3ccc(C(F)(F)F)cc3F)nc(CO)c2c(=O)[nH]1 (single isomer, unassigned) [Example 31, (S)- or (R)-7-(1-(2-fluoro-4-(trifluoromethyl)phenyl)ethyl)-5-(hydroxymethyl)-2-methylimidazo[5,1-f][1,2,4]triazin-4(3H)-one] | 9.10 | –
12 | Cc1nn2c(C(C)c3ccc(OC(F)(F)F)cc3)nc(CO)c2c(=O)[nH]1 (single isomer, unassigned) [Example 32, (R)- or (S)-5-(hydroxymethyl)-2-methyl-7-(1-(4-(trifluoromethoxy)phenyl)ethyl)imidazo[5,1-f][1,2,4]triazin-4(3H)-one] | 7.20 | –
13 | Cc1nn2c(C(C)c3ccc(OC(F)(F)F)cc3)nc(CO)c2c(=O)[nH]1 (single isomer, unassigned) [Example 33, (S)- or (R)-5-(hydroxymethyl)-2-methyl-7-(1-(4-(trifluoromethoxy)phenyl)ethyl)imidazo[5,1-f][1,2,4]triazin-4(3H)-one] | 8.92 | –
14 | Cc1nn2c(C(C)c3ccc(C(F)(F)F)c(F)c3)nc(CO)c2c(=O)[nH]1 (single isomer, unassigned) [Example 34, (R)- or (S)-7-(1-(3-fluoro-4-(trifluoromethyl)phenyl)ethyl)-5-(hydroxymethyl)-2-methylimidazo[5,1-f][1,2,4]triazin-4(3H)-one] | 6.67 | –
15 | Cc1nn2c(C(C)c3ccc(C(F)(F)F)c(F)c3)nc(CO)c2c(=O)[nH]1 (single isomer, unassigned) [Example 35, (S)- or (R)-7-(1-(3-fluoro-4-(trifluoromethyl)phenyl)ethyl)-5-(hydroxymethyl)-2-methylimidazo[5,1-f][1,2,4]triazin-4(3H)-one] | 9.00 | –
16 | Cc1nn2c(C(C)c3ccc(C4(C)CC4)cc3)nc(CO)c2c(=O)[nH]1 (single isomer, unassigned) [Example 36, (R)- or (S)-5-(hydroxymethyl)-2-methyl-7-(1-(4-(1-methylcyclopropyl)phenyl)ethyl)imidazo[5,1-f][1,2,4]triazin-4(3H)-one] | 6.96 | –
17 | Cc1nn2c(C(C)c3ccc(C4(C)CC4)cc3)nc(CO)c2c(=O)[nH]1 (single isomer, unassigned) [Example 37, (S)- or (R)-5-(hydroxymethyl)-2-methyl-7-(1-(4-(1-methylcyclopropyl)phenyl)ethyl)imidazo[5,1-f][1,2,4]triazin-4(3H)-one] | 9.40 | –
18 | Cc1nn2c([C@@H](C)c3ccc(C(F)(F)F)cc3)nc(CCO)c2c(=O)[nH]1 (single isomer, unassigned) [Example 39] | 7.04 | –
19 | COc1ccc(Cc2nn3c([C@@H](CCCc4ccccc4)[C@@H](C)O)nc(C)c3c(=O)[nH]2)cc1OC [Bay 60-7550] | – | brain penetration [1]: limited; potency at other PDE isoforms (other PDE isoforms): significant potency
20 | Cc1nn2c(C(C)c3ccc(C(F)(F)F)cc3)nc(CC#N)c2c(=O)[nH]1 (stereo not shown) [Example 38, 2-(2-methyl-4-oxo-7-(1-(4-(trifluoromethyl)phenyl)ethyl)-3,4-dihydroimidazo-[5,1-f][1,2,4]triazin-5-yl)acetonitrile] | 8.21 | –
